{"source": "patent US20250011738A1", "about": "“HEAT TOLERANT ALKALINE PHOSPHATASE” (BiomEdit, LLC, priority 2021, published 2025)", "molecular_target": "T1, Paenibacillus lentus alkaline phosphatase AP1 heat tolerant mutant APHT (designated \"HT\"), 16 amino acid changes from AP1, SEQ ID NO: 1 (Paenibacillus lentus, UniProt A0A3Q8S6G4, A163G/A247P/A302M/D102S/D304A/F110I/G290A/K198N/K66I/L136H/S105A/S168N/S338G/S535E/T223N/V100I/Y117N)", "T1 sequence (A0A3Q8S6G4 34-572 K66I/V100I/D102S/S105A/F110I/Y117N/L136H/A163G/S168N/K198N/T223N/A247P/G290A/A302M/D304A/S338G/S535E)": "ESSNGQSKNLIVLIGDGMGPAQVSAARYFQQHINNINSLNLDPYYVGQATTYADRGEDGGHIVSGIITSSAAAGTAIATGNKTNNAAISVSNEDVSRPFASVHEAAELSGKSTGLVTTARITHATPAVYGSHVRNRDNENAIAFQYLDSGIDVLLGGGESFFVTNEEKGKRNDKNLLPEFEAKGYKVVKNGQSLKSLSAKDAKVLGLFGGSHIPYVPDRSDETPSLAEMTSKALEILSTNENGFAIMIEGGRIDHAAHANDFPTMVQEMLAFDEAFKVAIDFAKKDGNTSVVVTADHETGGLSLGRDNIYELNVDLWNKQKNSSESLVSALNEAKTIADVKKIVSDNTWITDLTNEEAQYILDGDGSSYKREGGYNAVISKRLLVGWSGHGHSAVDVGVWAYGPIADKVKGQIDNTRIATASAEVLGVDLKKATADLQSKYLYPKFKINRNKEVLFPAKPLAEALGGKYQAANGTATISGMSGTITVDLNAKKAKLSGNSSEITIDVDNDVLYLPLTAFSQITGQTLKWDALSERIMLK", "type": "biochemical", "procedure": "FIG. 7 presents effect of pH on (A)Vmax (IU/mg) and (B) KM (μM) activity of AP1 (designated “Native”) and APHT (designated “HT”). Assays were performed at 40° C. with p-NPP as substrate in the concentration range 0-5 mM. The enzyme concentration was 2.5 μg/mL for the pH 8 and 0.4 mg/mL for pH 9-13).\nFIG. 8 presents effect of pH on (A)Vmax (IU/mg) and (B) KM (μM) activity of AP1 (designated “Native”) and APHT (designated “HT”). Assays were performed at 50° C. with p-NPP as substrate in the concentration range 0-5 mM. The enzyme concentration was 2.5 μg/mL for the pH 8 and 0.4 mg/mL for pH 9-13).\nTo further improve the thermal stability, a set of synthetic alkaline phosphatase genes where each amino acid was mutated to other possibilities one at a time was constructed and evaluated. […] In FIG. 5A, the AP1 with a serine mutation is designated as “AP Native” and is depicted in sequence with a leader sequence […] (SEQ ID NO:13). The AP1 with leader sequence […] is provided in SEQ ID NO:14). The APHT polypeptide with leader sequence […] is provided in SEQ ID NO:15). In FIG. 5B, the AP1 with a serine mutation and without any leader sequence or leader peptide amino acids (SEQ ID NO:4) is aligned and compared with the APHT without any leader sequence or leader peptide amino acids (SEQ ID NO:1). The 16 amino acid changes in APHT are evident. The APHT amino acid sequence (excluding and without any leader sequence and starting with amino acids ESSN) is 97% identical to the sequence of AP1 (excluding and without any leader sequence and starting with amino acids ESSN).\nThe APHT sequence (SEQ ID NO: 1) is provided below with the amino acid mutations versus the AP1 sequence underlined and in bold.\n• 1 M DEA Buffer pH 10. Dissolve 10.5 g of diethanolamine in to 100 ml of water. The pH adjust with 1 M hydrochloric acid or 1 M NaOH. Filter sterilize and store at 4 C. • 0.5 M Tris Base Buffer pH 10 and 8. Dissolve 6.06 g of Tris in to 100 ml of water. The pH adjust with 1 M hydrochloric acid or 1 M NaOH. Filter sterilize and store at 4 C. • 0.1 M Borate Buffer pH 11 and 12. Dissolve 0.62 g Boric acid, 0.44 g NaCl and Sodium tetraborate 0.95 g in 100 ml H2O. The pH adjust with 1 M hydrochloric acid or 1 M NaOH. Filter sterilize and store at 4 C. • 1 M KCl/NaOH Buffer pH 13. Dissolve 7.4 g KCl in 100 ml water. The pH adjust with 1 M NaOH. Filter sterilize and store at 4 C. • 1 M MgCl2, 23.8 g MgCl2 anhydrous in […] water. Filter sterilize and store at 4 C 3. Activity Assay: p-NPP Substrate\nReactions were carried out at 40° C. using 50 mM Tris buffer pH 7 with 50 mM MgCl2 and at 50° C. using 50 mM DEA buffer pH 10 with 50 mM MgCl2. Enzyme was thawed, aliquoted in 500 μL vials and freeze at −80° C. For 100 μL volume of reaction, components were mixed in 96-well microplate (Fisher 12565501) following the order in TABLE 1. Every reaction condition was done by triplicated at least.\nAfter the adding enzyme, the absorption of product was followed at 405 nm over 5 min in a M5 plate reader with intervals of 20 s. Initial rate was determined for each curve and product formed calculated using the extinction coefficient of 18.5 mM^−1·cm^−1 and a calculated pathlength of 0.5 cm. Initial rates where fitted to Michalis Menten model built in the Kaleidagraph software.\npH effect on enzyme activity was tested at 40 and 50° C. in the corresponding buffer with 50 mM MgCl2 using p-NPP as substrate in the concentration range 0-5.0 mM. The reaction started with the addition of enzyme (2.5 μg/mL for pH 8 and 0.4 μg/mL for pH 9-13) and the absorption at 405 nm was followed for 5 min. Every reaction condition was done by triplicated at least.", "note": "Like-named read-outs stand apart in the source and are kept apart here."}
{"smiles": "O=[N+]([O-])c1ccc(OP(=O)(O)O)cc1", "note": "[p-NPP, p-nitrophenylphosphate]", "values": [{"measurement": "Km", "setting": "40° C., Borate pH 11", "value": 12200, "unit": "µM"}, {"measurement": "Km", "setting": "40° C., Borate pH 12", "value": 498, "unit": "µM"}, {"measurement": "Km", "setting": "40° C., DEA pH 10", "value": 2540, "unit": "µM"}, {"measurement": "Km", "setting": "40° C., Tris pH 8", "value": 46, "unit": "µM"}, {"measurement": "Km", "setting": "40° C., Tris pH 9", "value": 992, "unit": "µM"}, {"measurement": "Km", "setting": "50° C., Borate pH 11", "value": 12200, "unit": "µM"}, {"measurement": "Km", "setting": "50° C., Borate pH 12", "value": 1080, "unit": "µM"}, {"measurement": "Km", "setting": "50° C., DEA pH 10", "value": 2540, "unit": "µM"}, {"measurement": "Km", "setting": "50° C., KCl/NaOH (pH printed 204; Table 2: 13.0)", "value": 498, "unit": "µM"}, {"measurement": "Km", "setting": "50° C., Tris pH 8", "value": 45, "unit": "µM"}, {"measurement": "Km", "setting": "50° C., Tris pH 9", "value": 992, "unit": "µM"}]}
